# Reference: patent publication EP3390415B1, “(R)- AND (S)-1-(3-(3-N,N-DIMETHYLAMINOCARBONYL)PHENOXYL-4-NITROPHENYL)-1-ETHYL-N,N'-BIS (ETHYLENE)PHOSPHORAMIDATE, COMPOSITIONS AND METHODS FOR THEIR USE AND PREPARATION” (OBI PHARMA, INC., priority 2015, dated 2017)
# Values joined by “and” are separate entries in the source; they are usually repeats but may differ in a detail not shown here. Equal values may be shown once. Read-outs that look alike come from different tables or passages of the source.
# How the values were obtained:
# Vcap = assay: In vitro human tumor cell line cytotoxicity assay; assay type: cell-based; details: for IC50: Homo sapiens, VCaP
# TE-6 = assay: In vitro human tumor cell line cytotoxicity assay; assay type: cell-based; details: read-out: RelIC50
# LIXC012 = assay: In vitro human tumor cell line cytotoxicity assay; assay type: cell-based; details: for IC50: Homo sapiens
# PLCPRF5 = assay: In vitro human tumor cell line cytotoxicity assay; assay type: cell-based; details: for IC50: Homo sapiens
# KYSE 180 = assay: In vitro human tumor cell line cytotoxicity assay; assay type: cell-based; details: read-out: RelIC50
# HCCC9810 = assay: In vitro human tumor cell line cytotoxicity assay; assay type: cell-based; details: for IC50: Homo sapiens
# SNU-387 = assay: In vitro human tumor cell line cytotoxicity assay; assay type: cell-based; details: for IC50: Homo sapiens
# [1] = test system: HepG2-GFP human hepatocellular carcinoma; assay: Orthotopic mouse model of human liver cancer, tumor burden; assay type: in vivo, athymic nude mice; details: for tumor inhibition rate IR(%): from final average tumor weights
# Method: Female athymic nude mice (6 weeks of age) were used in this study. The animals were purchased from Beijing HFK Bioscience, Co., Ltd and maintained in a High Efficiency Particulate Air Filter (HEPA) filtered environment with cages, food, and bedding sterilized by irradiation or autoclaving. A total of 32 nude mice were used for the study. HepG2-GFP human hepatocellular carcinoma cells (AntiCancer, Inc., San Diego, CA) were incubated with RPMI-1640 (Gibco-BRL, Life Technologies, Inc.), which contained 10% FBS. Cells were grown in a CO2 Water Jacketed Incubator (Forma Scientific) maintaining 37°C and a 5% CO2/95% air atmosphere. Cell viability was determined by trypan blue exclusion analysis. Five female athymic nude mice were injected subcutaneously with a single dose of 5 x 10^6 HepG2-GFP cells. Tumors were harvested when their size reached 1cm^3 and the tumor tissues were then cut into small fragments of 1mm^3. Forty female nude mice were implanted orthotopically with a single piece of tumor fragment, which was derived from a subcutaneous tumor model of HepG2-GFP human hepatocellular carcinoma. The tumor tissue was orthotopically implanted in the right lobe of the liver in each mouse by SOI (Surgical Orthotopic Implantation). Briefly, an upper abdominal incision of 1cm was made under anesthesia. Right lobe of the liver was exposed and a part of the liver surface was injured mechanically by scissors. Then a piece of tumor fragment was fixed within the liver tissue, the liver was returned to the peritoneal cavity and the abdominal wall finally closed. Mice were kept in laminar-flow cabinets under specific pathogen-free-conditions.
# Treatment was started three days after tumor implantation when the implanted tumors reached an average size of around 1 mm^2. The 32 tumor-bearing mice were randomly divided into four experimental groups of 8 mice each. Each cage was clearly marked for its group with four mice per cage. […] Table. Groups and treatment protocol
# During the period of the study, all of the experimental mice were checked daily for mortality or signs of morbidity. […] The body weights of the mice were measured twice weekly during the study period. Images of tumor growth and progression were acquired twice a week during the period of the study with the FluorVivo imaging system, Model 300/Mag (INDEC, CA, USA). […] Livers were exposed for imaging, after which the tumors were removed and weighted with an electronic balance (Sartorius BS 124 S, Germany). Tumor tissues were kept in formalin for further analysis. Comparisons of body weights and tumor burdens in different groups were analyzed using the Student's t-test with an α = 0.05 (two-sided). After intravenously injection of the test agents, the mice had no lying, no autonomous activity reduction. The experimental animals were generally in good condition. Table. Comparison of mean mice body weight at the end of the study
# The progressions of orthotopic HepG2-GFP hepatocellular carcinoma in different groups were monitored by real time imaging. Images were acquired twice a week. Typical tumor images at the end of the study in each group and tumor growth curves derived from the signals of tumor fluorescence, which were analyzed using the Power Station software (INDEC Biosystems, CA, USA), are shown in figure 6 and figure 7, respectively Table. Average tumor size in each group (mm2)
# TALL-1 = assay: In vitro human tumor cell line cytotoxicity assay; assay type: cell-based; details: read-out: RelIC50
# Jurkat, Clone E6-1 = assay: In vitro human tumor cell line cytotoxicity assay; assay type: cell-based; details: read-out: RelIC50
# H460 cells = assay: In vitro proliferation assay, H460; assay type: cell-based; details: Homo sapiens, NCI-H460; 2 hrs exposure, wash, additional 70hrs, AlamarBlue; read-out: IC 50 in proliferation assay in H460 cells
# Method: In vitro proliferation data on the H460 […] human tumor cell line is reported above in the compound table. IC50 values are reported in micromolar and result from exposure of compound at various concentrations for 2 hrs followed by a wash step and addition of fresh media followed by growth and cell viability staining and comparison to a media only treated control.
# Specifically, exponentially growing cells were seeded at a density of 4 x 10^3 cells per well in a 96 well plate and incubated at 37°C in 5% CO2, 95% air and 100% relative humidity for 24 hours prior to addition of test compounds. Compounds were solubilized in 100% DMSO at 200 times the desired final test concentration. At the time of drug addition, compounds were further diluted to 4 times the desired final concentration with complete medium. Aliquots of 50 µl of compound at specified concentrations were added to microtiter wells already containing 150 µl of medium, resulting in the final drug concentration reported. After drug addition, the plates were incubated for an additional 2 hours at 37°C, 5% CO2, 95% air, and 100% relative humidity, then the drug was washed off and fresh medium was added and the plates were incubated for addition 70hrs at 37 °C, 5% CO2, 95% air and 100% relative humidity. At the end of this incubation, the viable cells were quantified using the AlamarBlue assay. The drug concentration resulting in growth inhibition of 50% (IC50) was calculated using Prism software (Irvine, CA), and the results were listed in the table.
# TE-8 = assay: In vitro human tumor cell line cytotoxicity assay; assay type: cell-based; details: read-out: RelIC50
# MOLT-4 = assay: In vitro human tumor cell line cytotoxicity assay; assay type: cell-based; details: read-out: RelIC50
# P30/OHK = assay: In vitro human tumor cell line cytotoxicity assay; assay type: cell-based; details: read-out: RelIC50
# NOMO-1 = assay: In vitro human tumor cell line cytotoxicity assay; assay type: cell-based; details: read-out: RelIC50
compound,measurement,setting,value
"C[C@H](OP(=O)(N1CC1)N1CC1)c1ccc([N+](=O)[O-])c(Oc2cccc(C(=O)N(C)C)c2)c1 (single isomer, unassigned) [TH3424]",IC50,Vcap; read-out: AbsIC50,14.8 nM
same,IC50,Vcap; read-out: RelIC50,13.2 nM
same,Max Inhibition%,Vcap; Vcap,101.4%
same,Min Inhibition%,Vcap; Vcap,-13.2%
same,IC50,TE-6,21 nM
same,Max Inhibition%,LIXC012,82.8%
same,Min Inhibition%,LIXC012,4.1%
same,IC50,LIXC012; read-out: AbsIC50,17.5 nM
same,IC50,LIXC012; read-out: RelIC50,11.2 nM
same,Max Inhibition%,PLCPRF5,85.2%
same,Min Inhibition%,PLCPRF5,1.4%
same,IC50,"PLCPRF5; PLC-PRF-5, read-out: AbsIC50",111 nM
same,IC50,"PLCPRF5; PLC-PRF-5, read-out: RelIC50",128 nM
same,IC50,KYSE 180,450 nM
same,Max Inhibition%,HCCC9810,95.4%
same,Min Inhibition%,HCCC9810,2.1%
same,IC50,HCCC9810; read-out: AbsIC50,13.9 nM
same,IC50,HCCC9810; read-out: RelIC50,13.4 nM
same,Max Inhibition%,SNU-387,99.3%
same,Min Inhibition%,SNU-387,-14.8%
same,IC50,SNU-387; read-out: AbsIC50,70.1 nM
same,IC50,SNU-387; read-out: RelIC50,58.7 nM
same,Tumor area (mm^2) (mean ± sd),"[1]; 2.5mg/kg, QWx6, I.P., Day 35",1.2 ± 1.1 mm^2 and 1.2 ± 1.1(Day 35) mm^2
same,Tumor area (mm^2) (mean ± sd),"[1]; 2.5mg/kg, QWx6, I.P., Day 49",2.0 ± 2.2 mm^2 and 2.0 ± 2.2(Day 49) mm^2
same,Tumor weight (g) (mean ± sd),"[1]; 2.5mg/kg, QWx6, I.P., Day 49",0.0081±0.0088 g and 0.0081±0.0088 (Day 49) g
same,average fluorescence imaging readout area as % of that in the negative control group,"[1]; 2.5 mg/kg, day 35",around 8%
same,average fluorescence imaging readout area as % of that in the negative control group,"[1]; 2.5 mg/kg, day 49 after treatment",around 8%
same,tumor inhibition rate IR(%),[1]; 2.5 mg/kg,94.8%
same,Tumor area (mm^2) (mean ± sd),"[1]; 5mg/kg, QWx3, I.P.",0 mm^2 and 0.0 ± 0.0 mm^2
same,Tumor weight (g) (mean ± sd),"[1]; 5mg/kg, QWx3, I.P.",0 g and 0.0000 ± 0.0000 g
same,tumor inhibition rate IR(%),[1]; 5mg/kg,100%
same,average tumor weight as % of that in the negative control group,"[1]; high dose group, 5mg/kg",0%
same,average tumor weight as % of that in the negative control group,"[1]; low dose group, 2.5mg/kg",5.2%
same,IC50,TALL-1,30 nM
same,IC50,"Jurkat, Clone E6-1",24 nM
same,IC50,H460 cells,4 nM
same,IC50,TE-8,19 nM
same,IC50,MOLT-4,10 nM
same,IC50,P30/OHK,> 1000 nM
same,IC50,NOMO-1,11 nM
